{"source": "paper PMC10635799", "about": "“Analogs of FTY720 inhibit TRPM7 but not S1PRs and exert multimodal anti-inflammatory effects” (The Journal of General Physiology, 2023)", "key": {"[1]": {"test_system": "LPS-induced endotoxemia in mice", "test": "Lethal dose (LD50) LPS mouse model", "format": "in vivo", "conditions": "LD50 LPS + 30 mg/kg"}, "RAW 264.7 macrophages": {"test_system": "RAW 264.7 macrophages", "test": "LPS-induced inflammatory gene expression (qRT-PCR) in RAW 264.7 macrophages", "format": "cell-based", "conditions": "LPS 1 µg/ml for 3 h", "procedure": "RAW 264.7 macrophages or BMDMs were seeded at a density of 250,000 cells per well into a 12-well tissue culture plate in 1 ml of media and left to incubate overnight. The indicated drug or vehicle control was added to each well, and the plate was agitated and left to incubate for 10 min. The cells were then treated with LPS (1 μg/ml) or an equivalent volume of PBS, agitated, and left to incubate for 3 h. Cells were washed with PBS and then RNA isolation was performed using RNeasy Plus Micro Kit (74134; Qiagen). cDNA was produced using GoScript Reverse Transcriptase ([…]; Promega) and a quantitative PCR was performed using SensiFast SYBR (98020; Bioline) and Bio-Rad CFX Connect thermocycler. Each datum represents an individual, biological replicate that is the mean of duplicate technical replicates. Fold-changes are all reported relative to untreated controls for each experiment and were calculated using the ΔΔCt method, with β2-microglobulin used as the housekeeping gene for each sample. The experiment was performed similarly with BV-2 microglia and alveolar macrophages, except that cells were plated at a density of 100,000 cells per well into a 24-well tissue culture plate with 1 ml of media per well."}, "[2]": {"test": "Whole-blood, brain and lung drug levels by LC-MS/MS in the sublethal LPS peritonitis model", "format": "in vivo", "conditions": "for Kp at 4 h / concentration at 4 h: both sexes, C57BL/6J, mouse, intraperitoneal", "procedure": "(§1) 12-wk-old WT C57BL/6J mice were purchased from Jackson Laboratory (Strain #000664). An equal number of male and female mice were randomly assigned to each treatment group. All studies were conducted according to a protocol approved by the University of Virginia Animal Care and Use Committee. Mice were socially housed with littermate controls and provided with free access to a standard chow diet and water. Baseline weights were taken <1 h prior to the experiment for individual dose calculations. For the sublethal model, mice were injected intraperitoneally with LPS (1 mg/kg), VPC01091.4 (30 mg/kg), both LPS and VPC01091.4, or vehicle alone (20% 2-hydroxypropyl-β-cyclodextrin in PBS). The volume injected was 200 μl and solutions were sterile-filtered (0.45 µm) prior to use. […] Mice were euthanized at 4 h, then blood was collected via cardiac puncture and anticoagulated with K2EDTA. […] The lungs were dissected, coarsely homogenized, and partitioned into separate samples for RNA extraction and mass spectrometry analysis. Samples to be used for RNA were stored at −20°C in RNAlater Stabilization Solution (AM7021; Thermo Fisher Scientific) while samples for use in mass spectrometry were flash-frozen in liquid nitrogen. Whole brains were physically dissected, coarsely homogenized, and stored for later processing as with the lung tissue. 10 μl of each whole blood sample was reserved for mass spectrometry analysis, 15 μl was used to obtain lymphocyte counts with a Hematology Analyzer (Heska Element HT5), and the remainder was used to produce plasma through centrifugation at 2,000 × g for 15 min at 4°C. Plasma cytokines were then measured using a multiplex mouse proinflammatory cytokine panel performed by the University of Virginia Flow Cytometry Core (RRID: SCR_017829). Cytokine values beyond the limit of detection (LOD) are reported as the LOD value. Tissue RNA was isolated from preserved samples using 30 min of automated homogenization at 30 Hz with 5-mm ball-bearings in RLT Plus Lysis Buffer (TissueLyser II; Qiagen); RNA was then isolated using a RNeasy Plus Micro Kit (74134; Qiagen). Whole-tissue cytokine expression changes were then measured using qRT-PCR as with ex vivo cell culture experiments. For the lethal dose model, mice were injected with LPS (25 mg/kg), both LPS and VPC01091.4, or vehicle alone (20% 2-hydroxypropyl-β-cyclodextrin in PBS). Symptoms were scored according to a standardized clinical score sheet that assessed conjunctivitis, lethargy, degradation in hair grooming behavior, stool changes, and facial grimace (Table 1). Mice that lost >20% of their starting body weight or received a clinical score of 8 or greater were euthanized.\nThe sample preparation method was adapted from that published by [Shaner et al. (2009)]. Specifically, homogenized tissue (100 μl) was added to a mixture of methanol and chloroform (2 ml, 3:1, LCMS grade) and incubated at 48°C for 16 h. The mixture was cooled to room temperature, an alcoholic KOH solution (200 μl, 1 M in LCMS-grade methanol) was added, and the mixture was further incubated at 37°C for 2 h. The samples were neutralized with glacial acetic acid (20 μl) and centrifuged at 4°C for 10 min at 10,000 × g. The supernatant fluid was transferred to a glass vial and dried under a stream of nitrogen. The material was dissolved in LCMS grade methanol (500 μl), vortexed, and centrifuged at 4°C for 10 min at 10,000 × g. The supernatant fluid was transferred to LC vials for analysis by LC-MS/MS.\nAnalyses were performed using a tandem quadrupole mass spectrometer (Xevo TQ-S micro; Waters) coupled to a UPLC (Waters Acquity h-class+) inlet equipped with a reverse phase C18 UPLC column (BEH C-18 1.7 µm bead size, 2.1 × 50 mm; Waters). The method used is a modification of that published by [Frej et al. (2015)]. Specifically, the LC flow rate was set at 0.4 ml/min and the column temperature was 60°C. […]"}, "[3]": {"test_system": "LPS-induced endotoxemia in mice", "test": "Sublethal LPS-induced peritonitis (endotoxemia) mouse model", "format": "in vivo", "procedure": "as §1"}, "[4]": {"conditions": "LPS 1 mg/kg + 30 mg/kg i.p., 4 h, vs LPS"}, "[5]": {"conditions": "whole-brain qRT-PCR, LPS 1 mg/kg + 30 mg/kg i.p., 4 h, vs LPS"}}, "note": "Read-outs that look alike come from different tables or passages of the source.", "data": [{"smiles": "CCCCCCCCc1ccc([C@@H]2CC[C@@](N)(CO)C2)cc1", "note": "[VPC01091.4, ((1S,3R)-1-amino-3-(4-octylphenyl)cyclopentyl)methanol]", "values": [{"measurement": "Survival rate", "setting": "[1]; 132 h, LPS-only 50%, control 100%, P = 0.127", "value": 83.33, "unit": "%"}, {"measurement": "Clinical scores (symptoms)", "setting": "[1]; vs LPS only, 132 h", "value": "significantly reduced at a number of timepoints"}, {"measurement": "Weight change from baseline", "setting": "[1]; vs LPS only, after first 48 h", "value": "recovering at a higher nadir and at an earlier timepoint"}, {"measurement": "LPS-stimulated IL-1β gene expression", "setting": "RAW 264.7 macrophages; 5 µM pretreatment", "value": "almost completely abrogated"}, {"measurement": "LPS-stimulated IL-1β gene expression", "setting": "RAW 264.7 macrophages; 10 µM pretreatment", "value": "almost completely abrogated"}, {"measurement": "Kp at 4 h", "setting": "[2]; brain / whole blood, 30 mg/kg i.p., VPC4 + LPS group, read-out: Mean brain level relative to mean blood level", "value": 9.35}, {"measurement": "Kp at 4 h", "setting": "[2]; brain / whole blood, 30 mg/kg, 30 mg/kg i.p., VPC4 group, read-out: Mean brain level relative to mean blood level", "value": 8.97}, {"measurement": "concentration at 4 h", "setting": "[2]; brain, 30 mg/kg i.p., VPC4 + LPS group, read-out: Mean brain concentration", "value": 162, "unit": "µM"}, {"measurement": "concentration at 4 h", "setting": "[2]; brain, 30 mg/kg i.p., VPC4 group, read-out: Mean brain concentration", "value": 142, "unit": "µM"}, {"measurement": "Kp at 4 h", "setting": "[2]; lung / whole blood, 30 mg/kg i.p., VPC4 + LPS group, read-out: Mean lung level relative to mean blood level", "value": 33.2}, {"measurement": "Kp at 4 h", "setting": "[2]; lung / whole blood, 30 mg/kg, 30 mg/kg i.p., VPC4 group, read-out: Mean lung level relative to mean blood level", "value": 31.1}, {"measurement": "Kp at 4 h", "setting": "[2]; lung / whole blood, 30 mg/kg, mice that received VPC4, 30 mg/kg i.p., read-out: Lung levels relative to blood", "value": 32}, {"measurement": "concentration at 4 h", "setting": "[2]; lung, 30 mg/kg i.p., VPC4 + LPS group, read-out: Mean lung concentration", "value": 576, "unit": "µM"}, {"measurement": "concentration at 4 h", "setting": "[2]; lung, 30 mg/kg i.p., VPC4 group, read-out: Mean lung concentration", "value": 490, "unit": "µM"}, {"measurement": "concentration at 4 h", "setting": "[2]; whole blood, 30 mg/kg i.p. with LPS 1 mg/kg, cotreatment group, read-out: Mean whole blood concentration", "value": 17.4, "unit": "µM"}, {"measurement": "concentration at 4 h", "setting": "[2]; whole blood, 30 mg/kg i.p., drug-treated group, read-out: Mean whole blood concentration", "value": 15.8, "unit": "µM"}, {"measurement": "Brain levels relative to blood", "setting": "[2]; mice that received VPC4, 30 mg/kg i.p., 4 h", "value": "approximately ninefold"}, {"measurement": "Tolerability in mice", "setting": "[3]; 30 mg/kg i.p.", "value": "well-tolerated"}, {"measurement": "Absolute lymphocyte counts", "setting": "[3]; 30 mg/kg i.p., 4 h, between treatment groups", "value": "no significant differences"}, {"measurement": "Plasma IL-10", "setting": "[3]; LPS 1 mg/kg + 30 mg/kg i.p., 4 h", "value": "higher levels"}, {"measurement": "Plasma IFNγ", "setting": "[3]; [4]", "value": "significantly suppressed"}, {"measurement": "Plasma IL-1β", "setting": "[3]; [4]", "value": "significantly suppressed"}, {"measurement": "Plasma TNFα", "setting": "[3]; [4]", "value": "significantly suppressed"}, {"measurement": "Brain expression of CCL4", "setting": "[3]; [5]", "value": "significantly suppressed"}, {"measurement": "Brain expression of IL-1β", "setting": "[3]; [5]", "value": "significantly suppressed"}, {"measurement": "Brain expression of IL-6", "setting": "[3]; [5]", "value": "significantly suppressed"}, {"measurement": "Brain expression of TNFα", "setting": "[3]; [5]", "value": "significantly suppressed"}, {"measurement": "Lung expression of IL-6", "setting": "[3]; whole-lung qRT-PCR, LPS 1 mg/kg + 30 mg/kg i.p., 4 h, vs LPS", "value": "non-significantly lower"}]}]}
